Results reported in article PMC4473678, “Swedish mutant APP-based BACE1 binding site peptide reduces APP β-cleavage and cerebral Aβ levels in Alzheimer’s mice” (Scientific Reports, 2015).
“Also recorded” adds a separate entry of the source.

Key:
recombinant BACE1 = test: BACE1 activity (FRET) assay, cell-free; type: biochemical; conditions: for % of Inhibition of BACE1: FRET substrate Rh-EVNLDAEFK-quencher, dark, ex 545/em 585 nm, mean ± SD
Protocol: The BACE1 inhibiting activity of APP-based BACE1 site binding peptides were determined using a fluorescence resonance energy transfer (FRET) assay (Pan Vera Co., Madison, WI), which employs a recombinant baculovirus-expressed BACE1 and a specific substrate (Rh-[…]-quencher) that is based on the APPswe mutation. This specific peptide substrate becomes highly fluorescent upon enzymatic cleavage. […] Then, 10 μL of BACE1 stop buffer (2.5 M sodium acetate) was added to the mixture. Fluorescence was read using a fluorometer, with excitation at 545 nm and emission at 585 nm.

brain of 5XFAD mice = conditions: mouse, in vivo
Protocol: 5XFAD mice at 2 months of age (n = 5, female) were treated intraperitoneally with biotin-labeled TAT-APPsweBBP or APPsweBBP (100 nmol/kg) daily for 5 days and then euthanized 4 h after the last injection. Brain tissues were removed, sectioned and stained with anti-BACE1 and anti-biotin antibodies.
Fixed cell cultures and brain sections were stained with indicated antibodies and then treated with donkey anti-mouse IgG conjugated with Alexa Fluor 488 (1:200) or goat anti-rabbit IgG conjugated with Alexa Fluor 594 (1:200; Invitrogen, Carlsbad, CA). The slides were then washed, mounted with DAPI medium (Vector Laboratories, Burlingame, CA) and visualized with an Olympus FV1000 confocal microscope (Tokyo, Japan).

treated patients = conditions: Phase III; cited from earlier work
Text: Presenilin 1 and 2 (PS1/PS2), two integral membrane proteins found in the endoplasmic reticulum and Golgi apparatus, are the major enzymatic targets for γ-secretase inhibition for the treatment of AD[5]. However, apart from their roles in AD, PS1/PS2 also controls the Notch signaling pathway responsible for cell proliferation and differentiation during embryonic development. PS1/PS2-null mice have massive neuronal loss, skeletal defects, underdeveloped subventricular areas and severe hemorrhages, and only a few types of PS1/PS2-null mouse models survive after birth. Other subst ...

[1] = target: recombinant BACE1 protein (β-site APP cleaving enzyme 1) (UniProt P56817)
[2] = test system: recombinant BACE1 protein; test: Immunoprecipitation/WB of peptide-BACE1 binding, cell-free; conditions: 10 μg biotin-labeled peptide with 10 μL recombinant BACE1 (1.0 U/mL), 4 h, 37 °C; anti-BACE1 IP/anti-biotin WB and reverse
Protocol: In order to confirm that APPsweBBP containing the β-cleavage site could bind to and be consequently proteolyzed by BACE1, 10 μg of biotin-labeled TAT-APPsweBBP was incubated with or without 10 μL of recombinant BACE1 protein (1.0 U/mL) in BACE1 reaction buffer for 4 h at 37 °C and then subjected to WB analysis as described previously. In addition, we performed immunoprecipitation (IP) and WB analyses of this mixture with anti-BACE1 and anti-biotin antibodies to confirm that TAT-APPsweBBP, but not TAT, specifically binds to BACE1.

WT mice [3] = test: Radial arm water maze (RAWM), WT mice; type: in vivo, mouse; conditions: 100 nmol/kg i.p. daily, 8 weeks, n = 10 per treatment
5XFAD mice [4] = test: Rotarod test, 5XFAD mice; type: in vivo, mouse; conditions: 100 nmol/kg i.p. daily, 8 weeks, n = 10 per treatment
Protocol: (§1) Transgenic AD mice [5XFAD; B6SJL-Tg(APPSwFlLon,PSEN1*M146L*L286V) 6799Vas/Mmjax] at 2.5 months of age were obtained from the Jackson Laboratory (Bar Harbor, ME) and housed and maintained in the Animal Facility of College of Medicine at University of South Florida (USF). The mice at 3.5 months of age were treated with TAT-APPsweBBP, TAT peptide (100 nmol/kg in 100 μL PBS) or PBS (100 μL) daily by intraperitioneal injection (i.p.) for eight consecutive weeks. The mice were subjected to behavioral testing after 8-week treatment and then euthanized for immunohistochemical, WB and ELISA analyses. Animals were housed and maintained at USF and all experiments were in compliance with protocols approved by USF Institutional Animal Care and Use Committee. All methods were performed in accordance with relevant guidelines and regulations.
The rotarod task was also performed to exclude the possibility that positive effects of any treatment in RAWM test are due to improvements in sensorimotor ability. Mice were positioned on the rod (diameter 3.6 cm) of the equipment (Rotarod 7650 accelerating model; Ugo Basile, Biological Research Apparatus, Varese, Italy), which was initially set at 1.0 rpm. The rod was then allowed to steadily accelerate up to 40.0 rpm over a 3-min session and evaluation was made by monitoring latency to fall.

WT mice [5] = test: Rotarod test, WT mice; type: in vivo, mouse; conditions: 100 nmol/kg i.p. daily, 8 weeks, n = 10 per treatment
Akt and MBP = test: WB of myelin signaling (Akt, MBP) in brain homogenates, 5XFAD mice; type: in vivo, mouse; conditions: TAT-APPsweBBP, TAT and PBS groups compared
Protocol: as §1
WB analysis was performed as previously described. Briefly, the proteins from the various cell-free suspensions, cell lysates and brain homogenates were electrophoretically separated using 10% bicine/tris gel (8 M urea) for proteins less than 5 kD or 10% tricine/tris gels for larger proteins. Electrophoresed proteins were transferred to polyvinylidene difluoride membranes (Bio-Rad, Richmond, CA), washed and blocked for 2 h at room temperature in Tris-buffered saline containing 5% (w/v) nonfat dry milk (TBS/NFDM). […]

5XFAD mice [6] = test: β-amyloid immunohistochemistry (4G8), 5XFAD mice; type: in vivo, mouse; conditions: 100 nmol/kg i.p. daily, 8 weeks, RSC, EC and H regions, n = 10, 5 female/5 male
Protocol: as §1
For paraffin brain tissues, we sectioned five coronal sections per region with a 100-μm interval and a thickness of 5-μm for retrosplenial cortex (RSC), entorhinal cortex (EC), and hippocampus (H), located at bregma −2.92 to −3.64 mm. […] Images were acquired as digitized tagged-image format files (to retain maximum resolution) using a BX60 microscope with an attached CCD camera system (DP-70, Olympus, Tokyo, Japan), and digital images were routed into a Windows PC for quantitative analyses using SimplePCI software (Hamamatsu Photonics, Hamamatsu, Shizuoka, Japan). […]

[7] = phase II, suspended June 2013; cited from earlier work
Text: Although these BACE1-null abnormalities are relatively mild, they are complex neurological phenotypes that raise a concern that complete inhibition or entire absence of BACE1 function may not be fre ...

BACE1 = conditions: cited from earlier work
[8] = peptide final concentration 20 μM, 90 min, room temperature

Sequence of recombinant BACE1 protein (β-site APP cleaving enzyme 1) (P56817 46-501): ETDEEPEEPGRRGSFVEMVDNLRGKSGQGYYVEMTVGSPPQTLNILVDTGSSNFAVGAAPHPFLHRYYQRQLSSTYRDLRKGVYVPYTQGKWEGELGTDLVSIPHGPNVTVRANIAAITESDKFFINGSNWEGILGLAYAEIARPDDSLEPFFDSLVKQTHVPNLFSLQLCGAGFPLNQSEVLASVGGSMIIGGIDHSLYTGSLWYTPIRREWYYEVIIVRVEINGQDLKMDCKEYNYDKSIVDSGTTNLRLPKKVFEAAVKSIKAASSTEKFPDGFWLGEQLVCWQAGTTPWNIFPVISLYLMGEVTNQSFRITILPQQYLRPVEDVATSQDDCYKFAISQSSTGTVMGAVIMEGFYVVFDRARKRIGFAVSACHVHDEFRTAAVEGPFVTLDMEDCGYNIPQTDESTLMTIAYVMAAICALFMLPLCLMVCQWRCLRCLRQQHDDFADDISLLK

For EISEVNLDAEFR, the “BACE1 inhibition (result in words)” value (recombinant BACE1; FRET assay, APPsweBBP or TAT-APPsweBBP at 0.05, 0.5, 5 and 20 μM (Fig. 1)) was “strongly inhibits BACE1 activity; also recorded: competitively inhibits the cleavage of commercial BACE1 substrate; also recorded: most effective BACE1 inhibitor; also recorded: much greater”, the “percentage inhibition of BACE1” value (recombinant BACE1; FRET assay, peptide final concentration 20 μM, 90 min, room temperature) was ~ 40% and the “% of Inhibition of BACE1” value (recombinant BACE1; [8]) was 38.43 ± 1.01%. The “BBB penetration (Fig. S4 legend)” value (brain of 5XFAD mice) was “stopped at the capillary lumen” and the “biotin distribution, 5XFAD versus WT control mice” value (brain of 5XFAD mice; ip) was “No noticeable differences in biotin distribution”.
For `CC(C)[C@H](O)C(=O)N[C@@H](C)C(=O)N[C@@H]1C(=O)N(C)CCc2ccccc21` [semagacestat], the “activities of daily living and cognition” value (treated patients) is given as “activities of daily living and cognition even worsened in the treated patients”.
With EISEVKMDAEFR the “% of Inhibition of BACE1” value (recombinant BACE1; [8]) was 16.23 ± 0.29%.
In the case of “APPwt BACE1 binding site peptide (APPwtBBP)”, the percent inhibition of BACE1 activity in a cell-free FRET assay (substrate Rh-…-quencher), peptide at 20 μM [1] is reported as 16.2%.
With EVNLDAEFR the “% of Inhibition of BACE1” value (recombinant BACE1; [8]) was 14.32 ± 0.04%.
With “YGRKKRRQRRREISEVKMDAEFR [APPwtBBP fused with TAT]” the “% of Inhibition of BACE1” value (recombinant BACE1; [8]) was 21.01 ± 1.42%.
In the case of “TAT-APPwtBBP (APPwt BACE1 binding site peptide fused with TAT)”, the percent inhibition of BACE1 activity in a cell-free FRET assay (substrate Rh-…-quencher), peptide at 20 μM [1] is reported as 21%.
For “YGRKKRRQRRR [TAT (YGRKKRRQRRR), reference compound]”, the “% of Inhibition of BACE1” value (recombinant BACE1; [8]) was 3.32 ± 0.02%, the “binding to BACE1 (co-immunoprecipitation)” value [2] was “but not TAT peptide, binds to BACE1” and the RAWM entry-arm errors (WT mice [3]) was “no difference among the various treatment groups”. The “rotarod latency to fall / motor performance” value (5XFAD mice [4]) was “no differences between treatment groups on each day”, the “rotarod latency to fall” value (WT mice [5]) was “no differences between treatment groups on each day” and the “Akt (total/phosphorylated) in brain homogenates” value (Akt and MBP) was “differ between TAT-APPsweBBP-, TAT- and PBS-treated 5XFAD mice”. For the same compound, the “myelin basic protein (MBP) expression in brain homogenates” value (Akt and MBP) was “differ between TAT-APPsweBBP-, TAT- and PBS-treated 5XFAD mice” and the “β-amyloid plaques / 4G8 immunoreactive area” value (5XFAD mice [6]) was “no significant difference between TAT peptide and PBS groups”.
For EVKMDAEFR, the “% of Inhibition of BACE1” value (recombinant BACE1; [8]) was 4.89 ± 0.06%.
“APPswe BACE1 binding site peptide (APPsweBBP) (from UniProt P05067 665-676)” gave a percent inhibition of BACE1 activity in a cell-free FRET assay (substrate Rh-…-quencher), peptide at 20 μM [1] of 38.4%.
In the case of `NC1=N[C@@]2(c3cc(NC(=O)c4ccc(F)cn4)ccc3F)COC[C@H]2CS1` [LY2886721], the liver toxicity [7] is listed as “possible liver toxicity”.
In the case of EVNLA*AEF [OM99-2], the BBB crossing (BACE1) is given as “too large to cross the BBB”, the potency (BACE1) is given as “high level of potency” and the stability (BACE1) is given as “not stable enough for use in therapeutic trials”.
With “biotin-labeled TAT-APPsweBBP (human Swedish mutant APP BACE1 binding site peptide conjugated to the HIV-1 TAT protein-transduction domain) (from UniProt P05067 665-676)” the percent inhibition of BACE1 activity in a cell-free FRET assay (substrate Rh-…-quencher), peptide at 0.05, 0.5, 5 and 20 μM [1] was over 90%.
